Test results reported in patent US20090143279A1 (priority 2007, published 2009).
Like-named read-outs stand apart in the source and are kept apart here.

Columns and labels:
[1] = tested on: mitochondrial membrane potential; format: cell-based, mouse; settings: Conc 20 μM; for ΔΨm (composite Z-score): normalized score vs mock-treated (DMSO) wells
reactive oxygen species = format: cell-based, mouse; settings: Conc 20 μM; for ROS (composite Z-score): normalized score vs mock-treated (DMSO) wells
OXPHOS gene expression = format: cell-based, mouse; settings: Conc 20 μM; for GE-HTS (composite Z-score): normalized score vs mock-treated (DMSO) wells
nuOXPHOS transcripts = format: cell-based, mouse; settings: Conc 20 μM; for nucOX (composite Z-score): normalized score vs mock-treated (DMSO) wells
mtOXPHOS transcripts = format: cell-based, mouse; settings: Conc 20 μM; for mitoOX (composite Z-score): normalized score vs mock-treated (DMSO) wells
cytochrome c = format: cell-based, mouse; settings: Conc 20 μM; for cyt c (composite Z-score): normalized score vs mock-treated (DMSO) wells
C2C12 myotubes = settings: Conc 20 μM; for Viability (composite Z-score): normalized score vs mock-treated (DMSO) wells
[2] = tested on: cellular dehydrogenase activity; settings: Conc 20 μM; for MTT (composite Z-score): normalized score vs mock-treated (DMSO) wells
[3] = composite Z-score vs mock-treated (DMSO) wells
[4] = normalized composite Z-score vs mock-treated (DMSO) wells

CCOC(=O)C1(O)Oc2cc(OC)cc(OC)c2C(=O)C1c1ccccc1 (stereo not drawn) [2-ethoxycarbonyl-2-hydroxy-5,7-dimethoxyisoflavanone, reference compound]
ΔΨm [1, 3]: 0.215 | ROS (reactive oxygen species; [3]): 0.774 | GE-HTS (OXPHOS gene expression; [3]): 0.280 | nucOX (nuOXPHOS transcripts; [3]): 0.232 | mitoOX (mtOXPHOS transcripts; [3]): 0.273 | cyt c (cytochrome c; [3]): 0.161 | Viability (C2C12 myotubes; [3]): 0.511 | MTT [2, 3]: −0.260

O=c1c2ccccc2oc2ccc(O)cc12 [2-hydroxyxanthone]
ΔΨm ([1]; composite Z-score vs DMSO): −0.245 | ROS (reactive oxygen species; composite Z-score vs DMSO): 1.660 | GE-HTS (OXPHOS gene expression; composite Z-score vs DMSO): −0.364 | nucOX (nuOXPHOS transcripts; composite Z-score vs DMSO): −0.173 | mitoOX (mtOXPHOS transcripts; composite Z-score vs DMSO): −0.652 | cyt c (cytochrome c; composite Z-score vs DMSO): 0.238 | Viability (C2C12 myotubes; composite Z-score vs DMSO): −0.402 | MTT ([2]; composite Z-score vs DMSO): −1.863

CC(C)=CCc1c(O)cc(C)oc1=O [2-isoprenyl-3-hydroxy-5-methyl-a-pyrone]
ΔΨm [1, 3]: −0.641 | ROS (reactive oxygen species; [3]): 1.032 | GE-HTS (OXPHOS gene expression; [3]): 0.309 | nucOX (nuOXPHOS transcripts; [3]): 0.277 | mitoOX (mtOXPHOS transcripts; [3]): 0.271 | cyt c (cytochrome c; [3]): −0.568 | Viability (C2C12 myotubes; [3]): −1.025 | MTT [2, 3]: 0.055

COc1cccc(C=CC(=O)O)c1C(C)C [2-isopropyl-3-methoxycinnamic acid]
ΔΨm [1, 4]: −0.155 | ROS (reactive oxygen species; [4]): 0.433 | GE-HTS (OXPHOS gene expression; [4]): 0.153 | nucOX (nuOXPHOS transcripts; [4]): 0.153 | mitoOX (mtOXPHOS transcripts; [4]): 0.071 | cyt c (cytochrome c; [4]): 0.274 | Viability (C2C12 myotubes; [4]): 0.040 | MTT [2, 4]: −2.002

Sc1nc2ccccc2s1 [2-mercaptobenzothiazole]
ΔΨm (composite Z-score) [1]: −0.486 | ROS (composite Z-score) (reactive oxygen species): 0.354 | GE-HTS (composite Z-score) (OXPHOS gene expression): −0.211 | nucOX (composite Z-score) (nuOXPHOS transcripts): −0.231 | mitoOX (composite Z-score) (mtOXPHOS transcripts): −0.097 | cyt c (composite Z-score) (cytochrome c): −0.026 | Viability (composite Z-score) (C2C12 myotubes): −0.830 | MTT (composite Z-score) [2]: −0.672

COc1c(O)cccc1O [2-methoxyresorcinol]
ΔΨm (composite Z-score) [1]: −0.536 | ROS (composite Z-score) (reactive oxygen species): 0.864 | GE-HTS (composite Z-score) (OXPHOS gene expression): 0.218 | nucOX (composite Z-score) (nuOXPHOS transcripts): −0.150 | mitoOX (composite Z-score) (mtOXPHOS transcripts): 0.954 | cyt c (composite Z-score) (cytochrome c): −0.146 | Viability (composite Z-score) (C2C12 myotubes): 0.514 | MTT (composite Z-score) [2]: 0.266

COc1ccc2oc3ccccc3c(=O)c2c1 [2-methoxyxanthone]
ΔΨm ([1]; composite Z-score vs DMSO): 0.540 | ROS (reactive oxygen species; composite Z-score vs DMSO): 1.398 | GE-HTS (OXPHOS gene expression; composite Z-score vs DMSO): −0.467 | nucOX (nuOXPHOS transcripts; composite Z-score vs DMSO): −0.710 | mitoOX (mtOXPHOS transcripts; composite Z-score vs DMSO): 0.165 | cyt c (cytochrome c; composite Z-score vs DMSO): 1.007 | Viability (C2C12 myotubes; composite Z-score vs DMSO): −0.428 | MTT ([2]; composite Z-score vs DMSO): −1.044

Cc1occc(=O)c1/C=C/O [2-methyl-3-hydroxyethylenepyran-4-one]
ΔΨm [1, 4]: −0.608 | ROS (reactive oxygen species; [4]): 0.234 | GE-HTS (OXPHOS gene expression; [4]): −0.128 | nucOX (nuOXPHOS transcripts; [4]): −0.012 | mitoOX (mtOXPHOS transcripts; [4]): −0.305 | cyt c (cytochrome c; [4]): −0.244 | Viability (C2C12 myotubes; [4]): 0.309 | MTT [2, 4]: −0.725

COc1cc(OC)c2c(=O)c(-c3ccccc3)c(C)oc2c1OC [2-methyl-5,7,8-trimethoxyisoflavone]
ΔΨm ([1]; composite Z-score vs DMSO): 0.306 | ROS (reactive oxygen species; composite Z-score vs DMSO): −0.371 | GE-HTS (OXPHOS gene expression; composite Z-score vs DMSO): 0.495 | nucOX (nuOXPHOS transcripts; composite Z-score vs DMSO): 0.629 | mitoOX (mtOXPHOS transcripts; composite Z-score vs DMSO): 0.081 | cyt c (cytochrome c; composite Z-score vs DMSO): 1.063 | Viability (C2C12 myotubes; composite Z-score vs DMSO): −0.656 | MTT ([2]; composite Z-score vs DMSO): −0.531

CCCc1occc(=O)c1CCO [2-propyl-3-hydroxyethylenepyran-4-one]
ΔΨm (composite Z-score) [1]: −0.741 | ROS (composite Z-score) (reactive oxygen species): 0.195 | GE-HTS (composite Z-score) (OXPHOS gene expression): 0.682 | nucOX (composite Z-score) (nuOXPHOS transcripts): 0.870 | mitoOX (composite Z-score) (mtOXPHOS transcripts): 0.202 | cyt c (composite Z-score) (cytochrome c): −0.100 | Viability (composite Z-score) (C2C12 myotubes): 0.162 | MTT (composite Z-score) [2]: −0.906

O=C(O[C@@H]1Cc2c(O)cc(O)cc2O[C@@H]1c1cc(O)c(O)c(O)c1-c1c([C@H]2Oc3cc(O)cc(O)c3C[C@H]2OC(=O)c2cc(O)c(O)c(O)c2)cc(O)c(O)c1O)c1cc(O)c(O)c(O)c1 [2′,2′-bisepigallocatechin digallate]
ΔΨm [1, 4]: −1.132 | ROS (reactive oxygen species; [4]): −0.130 | GE-HTS (OXPHOS gene expression; [4]): −0.865 | nucOX (nuOXPHOS transcripts; [4]): −0.836 | mitoOX (mtOXPHOS transcripts; [4]): −0.808 | cyt c (cytochrome c; [4]): 0.616 | Viability (C2C12 myotubes; [4]): 0.851 | MTT [2, 4]: −0.826

O=C(O[C@@H]1Cc2c(O)cc(O)cc2O[C@@H]1c1cc(O)c(O)c(O)c1-c1c([C@H]2Oc3cc(O)cc(O)c3C[C@H]2O)cc(O)c(O)c1O)c1cc(O)c(O)c(O)c1 [2′,2′-bisepigallocatechin monogallate]
ΔΨm (composite Z-score) [1]: −2.350 | ROS (composite Z-score) (reactive oxygen species): 0.428 | GE-HTS (composite Z-score) (OXPHOS gene expression): −0.573 | nucOX (composite Z-score) (nuOXPHOS transcripts): −0.545 | mitoOX (composite Z-score) (mtOXPHOS transcripts): −0.575 | cyt c (composite Z-score) (cytochrome c): 0.246 | Viability (composite Z-score) (C2C12 myotubes): 0.442 | MTT (composite Z-score) [2]: −1.318
